Reference: patent US9861712B2, “Preparation of extremely small and uniform sized, iron oxide-based paramagnetic or pseudo-paramagnetic nanoparticles and MRI T1 contrast agents using the same” (Hanwha Chemical Corporation, priority 2010, dated 2018)

System: rats
Experiment: In vivo MR imaging (dynamic time-resolved MR angiography, 3d-FLASH) of blood vessels
Protocol: Dynamic time-resolved MR angiography and 3d-FLASH images of rats were acquired using a wrist coil on a 3 T MRI scanner before and after the injection of 3 nm iron oxide nanoparticles capped by PO-PEG, prepared according to example 13 (dose: 2.5 mg Fe/kg). The pre-contrast images were subtracted from post-contrast images, and the resulting images were reconstructed using maximum intensity projection (MIP) protocol with OsriX (Version 3.8.1; 32 bit; OsiriX foundation, Geneva). Dynamic time-resolved MR angiography was obtained with an interpolated temporal resolution of 1.25 second and the following parameters: flip angle=20, ETL=1, TR=3.1 ms, TE=1.13 ms, field of view FOV=75×140 mm^2, matrix=256×106, slice thickness/gap=2.5 mm/0 mm, and NEX=1. The imaging parameters of 3d-FLASH are as follows: flip angle=25, ETL=1, TR=25 ms, TE=5.1 ms, field of view FOV=110×65 mm^2, matrix=256×169, slice thickness/gap=1.0 mm/0 mm, and NEX=2.
MR imaging using the 3 nm nanoparticles capped by glucose 6-phosphate was performed according to example 16.

blood half-life (in words): short blood half-life
SMILES: O=C([O-])CN1CCN(CC(=O)[O-])CCN([C@H](CO)[C@H](O)CO)CCN(CC(=O)[O-])CC1.[Gd+3] (racemic) [Gadovist]
contrast effect of in vivo MR image immediately after the injection (immediately after the injection): high contrast effect
time in which the bright signal vanished (in vivo MR image after injection): 2 min
